# Assay results as given in US20100113415A1, “EPHA4 RTK INHIBITORS FOR TREATMENT OF NEUROLOGICAL AND NEURODEGENERATIVE DISORDERS AND CANCER” (priority 2008, published 2010).
# Columns and labels:
# [1] = test system: C2C12 mouse myoblast cell line; test: Scratch wound assay, C2C12 cells; format: cell-based; conditions: from AUC of % wound confluence; for IC50: Mus musculus, C2C12, inflexion point, read-out: Scratch Assay C2C12 Cells IP
# Method: Cell Cultures: C2C12 mouse myoblast cell line (ATCC, VA, USA) was maintained in culture in DMEM media supplemented with 10% fetal bovine serum, 1 mM sodium pyruvate, 1.5 g/L sodium bicarbonate, and 100 IU of penicillin, […] of streptomycin. The cells were then differentiated into myotubes with DMEM supplemented with 2% horse serum for 3 days in 24 well ImageLock™ plate (Essen Instruments, MI, USA).
# Scratch wound assays are commonly used to assess the effects of drugs and drug candidates on the cellular proliferation and/or migration associated with wound closing. The IncuCyte™ system (Essen Instruments, MI, USA), an automated imaging platform, provides ongoing, real-time images and quantitative data generated throughout the wound-closing process. Cells were maintained in 24 well ImageLock™ (Essen Instruments, MI, USA) at 37° C. and 95% CO2/5% O2, until a confluent monolayer was achieved. A single scratch wound was then created in each well using the Essen Woundmaker™ (Essen Instruments, MI, USA). It induced a mechanical scratch of the cell monolayer using plastic pipette tips (10-20 μl pipette tips, Eppendorff). Dead cells and other debris produced by the scratch were immediately washed with regular growth media. Cells were then treated with pharmacological agents and were placed into the IncuCyte™ at 37° C. and 95% CO2/5% O2, for two to three days. During this time, the wound area within each well was repeatedly imaged at fixed time intervals (every three hours). The IncuCyte™ scratch wound software generates a “wound mask” for each well. An initial wound mask is created for the first image (at time 0) that clearly delineates the border of the wound. A revised mask is generated for each subsequent image to track wound closure. Wound closure can be automatically monitored using the wound confluence (% confluence). Wound confluence can be graphed over time to evaluate the characteristics of wound closing in the presence of pharmacological agents.
# The calculation of the area under the curve (AUC) of the % confluence function of the time gave a quantitative measurement of compounds efficacy on the scratch wound closing. Compounds were titrated in quadruplicate at 5 points concentration starting at 20 μM with a two-fold increment. The percentage of inhibition was calculated from the AUCs at each dose in comparison with the AUCs of the control wells (1% DMSO). Concentration-response curves were represented and the concentrations at the inflexion point (IP) were calculated. The maximum effect was given by the maximum percent inhibition.
# [2] = test system: Jak2/Stat3 activation with Interferon Gamma in MCF-7 cells; test: Cell-based counterscreen assay (IFN-γ activated Jak2/Stat3, pGAS-Luc in MCF-7 cells); conditions: for IC50: Homo sapiens, MCF7, inflexion point, read-out: Cell Counter Screen Assay IP
# Text: EphA4 cell-based assay was based on the signaling pathway of EphA4, which involves activation of the tyrosine kinase Jak2 and the transcriptional activator Stat3. However, pharmacological agents could also interfere downstream of EphA4 signaling and particularly on Jak2 activity. To counterscreen this potential effect unrelated to EphA4 activity, a new assay was designed based on direct activation of the tyrosine kinase Jak2 and the transcriptional activator Stat3 with Interferon Gamma (IFN-γ).
# MCF-7 cells were maintained in MEM growth media, supplemented with 10% fetal bovine serum, 2 mM L-glutamine, 1.5 g/L sodium bicarbonate, 0.1 mM non-essential amino acids, 1 mM sodium pyruvate, and 0.01 mg/ml bovine insulin. For the luciferase assay MCF-7 cells were co-transfected the next day with 50 μg of pGAS-Luc and 5 μg of empty vector pRL-CMV, which encoded the Renilla luciferase, and was included in the transfection mix for normalization. Six hours after transfection the cells were trypsinized and plated at 4.105 cells/ml into 96 well Black/Clear Poly-D-Lysine coated plates (Biocoat) that had been pre-spotted with compounds. IFN-γ (BD Pharmingen, USA) was then added to the wells. Cells were lysed the next day using the Reporter Lysis Buffer (Promega), and the luciferase activity was measured using the Dual Luciferase Assay (Promega) following the manufacturer's directions. The Firefly and Renilla luminescences are read consecutively on a Top-Count (Perkin-Elmer).
# Results are expressed as a ratio of the two luminescence: Firefly Luciferase/Renilla Luciferase. Cell viability was assessed on parallel plates using the Cell Glo Assay (Promega) following the manufacturer's directions. Results are expressed as percent of cell death in comparison with vehicle-treated wells.
# Compounds were titrated in duplicate at 10 points concentration starting at 100 μM with a 1.5 fold increment. Concentration-response curves were represented and the concentrations at the inflexion point (IP) were calculated. The maximum effect was given by the maximum percent inhibition calculated from the results of the control wells (containing only DMSO).
# [3] = test system: Primary Rat cortical astrocytes; test: Proliferation assay (cell confluence), astrocytes; format: cell-based; conditions: at 5 μM
# Method: C2Cl2 were plated at 15,000 cells per well and then differentiated into myotubes with DMEM supplemented with 2% horse serum for 3 days in 24 well ImageLock™ plate (Essen Instruments, MI, USA). Primary Rat cortical astrocytes were plated at 3.105 cells/ml onto 24 well ImageLock™ plate.
# Cells were placed into the IncuCyte™ at 37° C. and 95% CO2/5% O2, for two to three days. During this time, the cells within each well were repeatedly imaged at fixed time intervals (every three hours). The IncuCyte™ system automatically monitored the proliferation using the percentage of confluence. Percent of confluence can be graphed over time to evaluate the characteristics of proliferation in the presence of pharmacological agents.
# Compounds were tested at 5 μM in quadruplicate. The percentage of reduction of cell confluence was calculated from the AUCs in comparison with the AUCs of the control wells (1% DMSO).
SMILES,IC50 [1] [µM],Scratch Assay C2C12 Cells max inhibition in % [1] [%],Cell Counter Screen Assay max inhibition in % [2] [%],IC50 [2] [µM],% Reduction of Confluence Astrocytes [3] [% at 5 μM]
CC1CCc2c(-c3ccccc3Cl)nc3[nH]nc(N)c3c2C1 (stereo not shown) [Example 63],3.1,46,82,20,14.8
Cc1ccccc1-c1nc2[nH]nc(N)c2c2c1CCC(C)(C)C2 [Example 67],0.5,78,81,13,29.1
